From the NIST ThermoML archive (doi:10.1021/je700140j)
Numbers after ± are expanded uncertainties.

How the values were obtained:
[1] = refractive index (Na D-line) (dimensionless); xn = mol fraction of the nth substance listed; conditions: 100.8 kPa, Liquid, Standard Abbe refractometry, x1 = 1
[2] = xn = mol fraction of the nth substance listed; conditions: x1 = 1; for surface tension liquid-gas: Ring tensiometer; for mass density / viscosity: 100.8 kPa, Liquid
[3] = for surface tension liquid-gas: Ring tensiometer; for mass density / viscosity: 100.8 kPa, Liquid
[4] = refractive index (Na D-line) (dimensionless); conditions: 101.33 kPa, Liquid, Standard Abbe refractometry

Row | SMILES | refractive index ([1]; 298.15 K) | refractive index ([1]; 308.15 K) | refractive index ([1]; 318.15 K) | surface tension liquid-gas ([2]; 298.15 K) [mN/m] | mass density ([2]; 298.15 K) [kg/m3] | viscosity ([2]; 298.15 K) [mPa·s] | surface tension liquid-gas ([2]; 308.15 K) [mN/m] | mass density ([2]; 308.15 K) [kg/m3] | viscosity ([2]; 308.15 K) [mPa·s] | surface tension liquid-gas ([2]; 318.15 K) [mN/m] | mass density ([2]; 318.15 K) [kg/m3] | viscosity ([2]; 318.15 K) [mPa·s] | surface tension liquid-gas ([3]; 298.15 K) [mN/m] | mass density ([3]; 298.15 K) [kg/m3] | viscosity ([3]; 298.15 K) [mPa·s] | surface tension liquid-gas ([3]; 308.15 K) [mN/m] | mass density ([3]; 308.15 K) [kg/m3] | viscosity ([3]; 308.15 K) [mPa·s] | surface tension liquid-gas ([3]; 318.15 K) [mN/m] | mass density ([3]; 318.15 K) [kg/m3] | also measured
1 | CC(C)O [propan-2-ol] + OCc1ccccc1 | 1.37507 ± 0.00033 | 1.37063 ± 0.00033 | 1.3661 ± 0.00033 | 20.85 ± 0.32 | 781.17 ± 0.61 | 2.082 ± 0.028 | 20.05 ± 0.31 | 772.53 ± 0.63 | 1.55 ± 0.021 | 19.35 ± 0.31 | 763.52 ± 0.65 | 1.181 ± 0.016 |  |  |  |  |  |  |  |  | 
2 | CC(C)O [propan-2-ol] |  |  |  |  |  |  |  |  |  |  |  |  | 20.85 ± 0.32 | 781.17 ± 0.61 | 2.082 ± 0.028 | 20.05 ± 0.31 | 772.53 ± 0.63 | 1.55 ± 0.021 | 19.35 ± 0.31 | 763.52 ± 0.65 | viscosity ([3]; 318.15 K): 1.181 ± 0.016 mPa·s; refractive index ([4]; 298.15 K): 1.37507 ± 0.00033; refractive index ([4]; 308.15 K): 1.37063 ± 0.00033; refractive index ([4]; 318.15 K): 1.3661 ± 0.00033
3 | CC(C)O [propan-2-ol] + OCCc1ccccc1 | 1.37507 ± 0.00033 | 1.37063 ± 0.00033 | 1.3661 ± 0.00033 | 20.85 ± 0.32 | 781.17 ± 0.61 | 2.082 ± 0.028 | 20.05 ± 0.31 | 772.53 ± 0.63 | 1.55 ± 0.021 | 19.35 ± 0.31 | 763.52 ± 0.65 | 1.181 ± 0.016 |  |  |  |  |  |  |  |  | 

Continued, in another order:

Row | refractive index ([1]; 298.15 K) | refractive index ([1]; 308.15 K) | refractive index ([1]; 318.15 K) | surface tension liquid-gas ([2]; 298.15 K) [mN/m] | mass density ([2]; 298.15 K) [kg/m3] | viscosity ([2]; 298.15 K) [mPa·s] | surface tension liquid-gas ([2]; 308.15 K) [mN/m] | mass density ([2]; 308.15 K) [kg/m3] | viscosity ([2]; 308.15 K) [mPa·s] | surface tension liquid-gas ([2]; 318.15 K) [mN/m] | mass density ([2]; 318.15 K) [kg/m3] | viscosity ([2]; 318.15 K) [mPa·s] | surface tension liquid-gas ([3]; 298.15 K) [mN/m] | mass density ([3]; 298.15 K) [kg/m3] | viscosity ([3]; 298.15 K) [mPa·s] | surface tension liquid-gas ([3]; 308.15 K) [mN/m] | mass density ([3]; 308.15 K) [kg/m3] | viscosity ([3]; 308.15 K) [mPa·s] | surface tension liquid-gas ([3]; 318.15 K) [mN/m] | mass density ([3]; 318.15 K) [kg/m3] | SMILES | also measured
4 |  |  |  |  |  |  |  |  |  |  |  |  | 38.63 ± 0.54 | 1041.4 ± 0.29 | 5.555 ± 0.071 | 37.73 ± 0.53 | 1033.6 ± 0.27 | 4.093 ± 0.054 | 36.75 ± 0.52 | 1025.72 ± 0.26 | OCc1ccccc1 [benzenemethanol] | viscosity ([3]; 318.15 K): 3.12 ± 0.041 mPa·s; refractive index ([4]; 298.15 K): 1.53843 ± 0.00033; refractive index ([4]; 308.15 K): 1.53421 ± 0.00033; refractive index ([4]; 318.15 K): 1.52994 ± 0.00033
5 |  |  |  |  |  |  |  |  |  |  |  |  | 39.43 ± 0.58 | 1016.2 ± 0.39 | 11.4 ± 0.14 | 38.93 ± 0.57 | 1008.63 ± 0.37 | 7.518 ± 0.098 | 38.35 ± 0.56 | 1000.98 ± 0.36 | OCCc1ccccc1 [2-phenylethanol] | viscosity ([3]; 318.15 K): 5.232 ± 0.071 mPa·s; refractive index ([4]; 298.15 K): 1.53269 ± 0.00037; refractive index ([4]; 308.15 K): 1.52852 ± 0.00037; refractive index ([4]; 318.15 K): 1.52427 ± 0.00037
6 | 1.53843 ± 0.00033 | 1.53421 ± 0.00033 | 1.52994 ± 0.00033 | 38.63 ± 0.54 | 1041.4 ± 0.29 | 5.555 ± 0.071 | 37.73 ± 0.53 | 1033.6 ± 0.27 | 4.093 ± 0.054 | 36.75 ± 0.52 | 1025.72 ± 0.26 | 3.12 ± 0.041 |  |  |  |  |  |  |  |  | OCc1ccccc1 [benzenemethanol] + OCCc1ccccc1 | 
